Data taken from paper PMC6930524, “A Prospective Repurposing of Dantrolene as a Multitarget Agent for Alzheimer’s Disease” (Molecules, 2019).

How the values were obtained:
[1] = target: T1, beta amyloid peptide 1–40 (Aβ40) (Homo sapiens, UniProt P05067); assay: Inhibition of Aβ40 self-aggregation (ThT fluorescence, 2% HFIP); format: biochemical; conditions: inhibitor 100 μM, Aβ40 30 μM
T1 construct: beta amyloid peptide 1–40 (Aβ40); purchased Sigma-Aldrich Europe (Milan, Italy)
Source text: As an additional proof of the potential of DAN in interfering with AD-related processes, we investigated the effects on the in vitro self-aggregation of beta amyloid peptide 1–40 (Aβ40) and Tau hexapeptide (306)VQIVYK(311) (PHF6). Aβ40 is used as an in vitro probe of the fibrillization process leading to amyloid fibrils and ultimately to senile plaques in AD [32], while PHF6 represents the highly proaggregating sequence of the repeated domain R3 of Tau protein, responsible of the formation of neurofibrillary tangles and other tauopathies in NDs. With this aim, we developed a fast screening method of Aβ40 aggregation using thioflavin T (ThT) as fluorescent probe and 2% 1,1,1,3,3,3-hexafluoro-2-propanol (HFIP) as aggregation enhancer. Regarding PHF6, we started from an already published methodology for the setup of an in-house method, with 2,2,2-trifluoroethanol (TFE) as the cosolvent. […] Quercetin was used as a standard reference for the inhibition of amyloid aggregation. The concentrations of inhibitors were 100 μM and 25 μM in Aβ40 and in PHF6 assay, respectively. […]
An already established assay was used in a 96-well plate procedure, using HFIP as aggregation enhancer. […] After addition of ThT, the fluorescence was read at 440/485 excitation/emission wavelength. […] Inhibition values were calculated by means of Prism.

[2] = test system: SH-SY5Y cells; assay: DCF-DA assay of dopamine-induced ROS production; format: cell-based; conditions: dopamine 10 nM insult, compound 100 nM
Method: In order to get further information about the potential neuroprotective effects exerted by DAN, we tested it in a 2′,7′-dichlorofluorescin diacetate (DCF-DA) fluorescence-based assay, measuring the production of ROS induced by dopamine in cultured SH-SY5Y cells. Immortalized neuroblastoma cells are a widely used model for neuroprotection assays, while dopamine at a concentration of 10 nM acts as an inducer of oxidative stress, being metabolized by MAOs to form hydrogen peroxide. Once hydrolyzed and oxidized, DCF acts as the fluorescing probe of the OS state of cells. In the presence of an antioxidant, or even of a MAO inhibitor, ROS burden is lowered and DCF fluorescence decreased. […] Its activity is completely superimposable to that of phenelzine, a nonselective MAO inhibitor used as a positive control in Figure 5B [41]. […]
ROS production in SH-SY5Y cell line was detected using Cellular Reactive Oxygen Species Detection Assay Kit ([…]; Abcam, Cambridge, UK). […] After washing, the fluorescence was read immediately, and the readings were taken every 15 min in a 60-min time interval. Fluorescence signal at 535 nm (excitation at 485 nm) was measured using Tecan Infinite M1000 Pro (Tecan, Mannedorf, Switzerland).

T1 sequence (P05067 672-711 limits assumed): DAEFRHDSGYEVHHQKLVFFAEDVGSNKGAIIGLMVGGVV

**Q.** What does the source list for `O=C1CN(/N=C/c2ccc(-c3ccc([N+](=O)[O-])cc3)o2)C(O)=N1` [Dantrolene]?
**A.** inhibition at 100 µM [1]: 56%; reduction of ROS oxidation of DCF [2]: very effective
